What was measured:
[1] = system: croton oil (TPA) ear edema, rat ear; assay: Local antiinflammatory effect in rat croton oil ear edema following epicutaneous application; assay type: in vivo, rat (male Wistar); settings: for Inhibition in % / x ± s (mg), ear disk weight difference (right treated minus left untreated): epicutaneous, 4 h; for Local antiinflammatory effect (in words): general statement; for Relative local antiinflammatory potency (Result): rat ear edema, in words
Experimental: (§1) 1. Local antiinflammatory effect in rat croton oil ear edema following epicutaneous application
(§2) We used the rat ear method of Tonelli et al.: male Wistar rats from our own colony and weighing about 50 g were treated epicutaneously on the right ear with the irritant or with irritant containing test substance. The left ear remained untreated. TPA (12-O-tetradecanoylphorbol 13-acetate, SIGMA P 8139) dissolved in acetone, 0.4 mg/ml, (of which 20 μl each on the inside and outside) was used for eliciting the inflammation. The corticoids under examination were dissolved in this solution in the given final concentrations. Controls only received the TPA/solvent mixture. The animals were sacrificed using CO2 4 h after the epicutaneous treatment. Disks measuring 8 mm in diameter were punched out of the right (treated) and the left (untreated) ears and weighed immediately. This difference, as the parameter for the degree of inflammation, was set at 100 in the controls (mg, x±s). The antiinflammatory effect is characterized by giving the dose in mg/ml which is required for approximately 50% inhibition: […]

carrageenan paw edema = assay: Systemic antiinflammatory effect following subcutaneous administration: carrageenan paw edema in rats; assay type: in vivo, rat (male Sprague-Dawley); settings: for Increase in volume (ml) (x ± s), paw: 6 h after carrageenan
Experimental: 2 a) Examining for systemic antiinflammatory effect in the "antiinflammatory effect following subcutaneous administration: carrageenan paw edema in rats" test.
The carrageenan paw edema test in rats in accordance with the method described by Winter et al. Proc. Soc. Exp. Biol. (New York) Volume 111, p. 544 (1962) was chosen as the test for the acute systemic antiinflammatory effect. Male Sprague-Dawley rats of about 120 g in weight were given the substances to be tested s.c. (0.2 ml/100 g) dissolved in sesame oil. 30 min later, 0.1 ml of a 0.5% carrageenan solution was injected into the left hind paw. 6 h later, the degree of swelling was measured volumetrically. Controls were only given sesame oil.
The paw volumes are given in ml, x±s. In this case too, the antiinflammatory effect is characterized by giving the dose in mg/kg required for approximately 50% inhibition.

[2] = Split (ratio) of local to systemic antiinflammatory effect / therapeutic advantage; assay type: in vivo, rat
Experimental: as §1, §2
The carrageenan paw edema test in rats in accordance with the method described by Winter et al. Proc. Soc. […] 6 h later, the degree of swelling was measured volumetrically. […]

[3] = system: gluconeogenesis in rats (liver); assay: Systemic effect: gluconeogenesis in adrenalectomized rats; settings: for Glycogen + glucose mg/100 g of liver / Liver glycogen: 6 h; for Effect on new formation of glucose and glycogen (in words): p 0.05, t test
Experimental: A sensitive method for detecting systemic effects on carbohydrate metabolism is to examine the gluconeogenic effect of corticosteroids in the adrenalectomized rat. Three days prior to the experiment, groups of in each case 6 rats are adrenalectomized under pentobarbital anesthesia and then provided with 0.9% sodium chloride solution as drinking fluid. Two days later, i.e. 24 hours before initiating the experiment, the feed is removed in order to reduce the glycogen stores in the liver.
On the day of the experiment, the preparations under examination are administered subcutaneously, dissolved in sesame oil (2 ml/kg). Six hours later, the animals are decapitated, and in each case the liver is removed and 1 g thereof is taken up in 5 ml of 0.6 molar perchloric acid. After homogenization, the free glucose is measured in the supernatant from the centrifugation, while the centrifugation sediment (centrifugate; glycogen) is cleaved enzymically with amyloglucosidase, after which the glucose content is also measured in this fraction (Hexokinase method, Boehringer Mannheim).

[4] = 3.0 mg/kg s.c., * p<0.05, Dunnett's test
[5] = 3 mg/kg s.c., * significant, t test

SMILES	Inhibition in % ([1]; 0.03 mg/ml)	x ± s (mg), ear disk weight difference (right treated minus left untreated) ([1]; 0.03 mg/ml)	Inhibition in % ([1]; 0.1 mg/ml)	x ± s (mg), ear disk weight difference (right treated minus left untreated) ([1]; 0.1 mg/ml)	Inhibition in % ([1]; 0.3 mg/ml)	x ± s (mg), ear disk weight difference (right treated minus left untreated) ([1]; 0.3 mg/ml)	Local antiinflammatory effect (in words) [1]	Relative local antiinflammatory potency (Result) [1]	Increase in volume (ml) (x ± s), paw (carrageenan paw edema; 0.3 mg/kg s.c.)	Increase in volume (ml) (x ± s), paw (carrageenan paw edema; [4])	Split / ratio of local to systemic antiinflammatory effect (in words) [2]	Glycogen + glucose mg/100 g of liver ([3]; 0.3 mg/kg s.c.)	Liver glycogen ([3]; 0.3 mg/kg s.c.)	Glycogen + glucose mg/100 g of liver [3, 5]	Liver glycogen [3, 5]	Effect on new formation of glucose and glycogen (in words) ([3]; 3 mg/kg s.c.)	Inhibition in % ([1]; 1 mg/ml)	x ± s (mg), ear disk weight difference (right treated minus left untreated) ([1]; 1 mg/ml)	Systemic effect in paw edema compared with the test compounds (in words) (carrageenan paw edema; significant only after 3 mg/kg, s.c.)
CCOC(=O)O[C@]1(C(=O)COC(=O)Cc2ccccc2)CC[C@H]2[C@@H]3CCC4=CC(=O)C=C[C@]4(C)[C@H]3[C@@H](O)C[C@@]21C [Compound I, Prednisolone 17-ethyl carbonate 21-phenylacetate]	33%	10 ± 3.0 mg	67%	5 ± 1.1 mg	80%	3 ± 2.3 mg	strong local antiinflammatory effect	approximately three times more powerful than prednicarbate	0.34 ± 0.12 mL	0.19 ± 0.9 mL	strikingly favorable split to weak systemic activity	11.3 ± 2.0 mg/100 g of liver	0.5 ± 0.7	25.9 ± 13 mg/100 g of liver	2.4 ± 2.4	do not have any significant effect at 3 mg/kg			
CCOC(=O)O[C@]1(C(=O)COC(=O)Cc2ccccc2)[C@@H](C)C[C@H]2[C@@H]3CCC4=CC(=O)C=C[C@]4(C)[C@@]3(F)[C@@H](O)C[C@@]21C [Compound II, Betamethasone 17-ethyl carbonate 21-phenyl acetate]			66%	5.1 ± 3.3 mg	70%	4.5 ± 3.1 mg	strong local antiinflammatory effect	corresponding effect to that of compound I	0.33 ± 0.12 mL	0.19 ± 0.9 mL	strikingly favorable split to weak systemic activity	23.6 ± 6.8 mg/100 g of liver	2.8 ± 1.4	37.9 ± 30 mg/100 g of liver	7.4 ± 10	do not have any significant effect at 3 mg/kg			
CCOC(=O)O[C@]1(C(=O)COC(=O)CC)CC[C@H]2[C@@H]3CCC4=CC(=O)C=C[C@]4(C)[C@H]3[C@@H](O)C[C@@]21C [Prednicarbate, prednisolone 17-ethyl carbonate 21-propionate, reference compound]																	80%	3 ± 1.7 mg	corresponds to the behavior of prednicarbate
